Consider 1 compound from patent US12447161B2, “Topical pharmaceutical formulation” (RaDes GmbH, priority 2021, dated 2025).

The nature of data set [1]: Solubility of mometasone furoate in solvents of prior art formulations. It is filed as physicochemical. The method, then: Dissolution studies were performed with mometasone furoate in both the oil phase and the aqueous phase of the DIPA-containing lotion formulations of Examples 3 and 9 of DE102006034883 to determine the solubility of mometasone furoate in mg/ml in said formulations. For this purpose, first, the liquid excipients of the oil phase and the aqueous phase were mixed in the correct relative amounts to form the respective solvent systems; the low amounts of solid excipients contained in the formulations were not considered. Based on the weight ratio between oil and water phase, the theoretical solubility of mometasone furoate in the complete formulation can then be estimated using the formula: [proportion of oil phase·solubility in oil phase]+[proportion of aqueous phase·solubility in aqueous phase] For instance, for Ex. 3 of DE102006034883, the oil phase (paraffinum liquidum) makes up about 20 wt. %, the remainder is the aqueous phase. […] For instance, for Ex. 9 of DE102006034883, the oil phase makes up 27.88 wt. %, the remainder is the aqueous phase.

Data set [2] in a line: Re-precipitation of mometasone furoate in solvent systems of Ex. 10 and 11 of DE102006034883. It is filed as physicochemical. To be noted: then 40.56 parts of water. The method, then: Similar to Example 7 above, dissolution behaviour of mometasone furoate was also tested for the DIPA-containing prior art cream formulations described in examples 10 and 11 of DE102006034883. For this purpose, mometasone furoate was dissolved in solvent systems based on Ex. 10 and 11 as follows:
Ex. 10: 0.1 parts mometasone furoate were dissolved in 1 part phenoxy ethanol and 10 parts hexylene glycol, resulting in a clear solution.
Ex. 11: 0.1 parts mometasone furoate were dissolved in 1 part phenoxy ethanol and 10 parts diethylene glycol monoethyl ether (Transcutol®), resulting in a clear solution.

The conditions of data set [3]: cited from earlier work.

Entries after “also recorded” stand apart in the source; their conditions may differ.

Turning to `C[C@@H]1C[C@H]2[C@@H]3CCC4=CC(=O)C=C[C@]4(C)[C@@]3(Cl)[C@@H](O)C[C@]2(C)[C@@]1(OC(=O)c1ccco1)C(=O)CCl` [mometasone furoate, 9α,21-dichloro-11β,17α-dihydroxy-16α-methylpregna-1,4-diene-3,20-dione 17-(2-furoate)], in data set [1], the “solubility in liquid paraffin” value is “about 0.05 mg/mL”. In addition, the “Solubility of mometasone furoate” value in data set [1] (Aqueous phase Ex. 3 of DE102006034883 (phenoxy ethanol, polysorbate 40, Transcutol, water)) turned out to be 150 µg/mL; in data set [1] (Aqueous phase Ex. 9 of DE102006034883 (phenoxy ethanol, Steareth 21, hexylene glycol, water)), 90 µg/mL; in data set [1] (Oil phase Ex. 3 of DE102006034883 (liquid paraffin)), 50 µg/mL; in data set [1] (Oil phase Ex. 9 of DE102006034883 (MCT, DIPA, liquid paraffin, Capryol 90)) it was 830 µg/mL. The overall theoretical solubility result in data set [1] (complete formulation Ex. 3 of DE102006034883) is given as “about 0.13 mg/ml”; in data set [1] (complete formulation Ex. 9 of DE102006034883), “about 0.293 mg/ml”. The “behaviour on addition of aqueous phase” value is “precipitation of mometasone furoate; also recorded: precipitated” in data set [2] (Ex. 10 solvent system: phenoxy ethanol, hexylene glycol) and “precipitation of mometasone furoate; also recorded: precipitated” in data set [2] (Ex. 11 solvent system: phenoxy ethanol, Transcutol®). Also, the “log P” value in data set [3] is recorded as “about 4”. Also, the water solubility entry in data set [3] was “about 0.95 μg/mL”.
